In patent US20190256474A1, “N-PHENYL-2-(3-PHENYL-6-OXO-1,6-DIHYDROPYRIDAZIN-1-YL)ACETAMIDE DERIVATIVES FOR TREATING CYSTIC FIBROSIS” (Proteostasis Therapeutics, Inc., priority 2016, published 2019):

Target: T1, ΔF508-CFTR (Homo sapiens, UniProt P13569, DEL508-508)
T1 construct: Primary lung epithelial cells homozygous for the Cystic Fibrosis-causing ΔF508 mutation were differentiated; endogenous in cells; host or cells: primary human bronchial epithelial cells (hBE), ΔF508/ΔF508
Assay: hBE equivalent current (Ieq) assay, CFTR activity
Format: cell-based
Conditions: relative to a CFTR amplifier at 3 μM, ΔF508 homozygous hBE, 24 h treatment; for Activity 3 μM: compound at 3 μM; for Activity 10 μM: compound at 10 μM
Method: Primary lung epithelial cells homozygous for the Cystic Fibrosis-causing ΔF508 mutation were differentiated for a minimum of 4 weeks in an air-liquid interface on Costar 24 well HTS filter plates prior to the equivalent current (Ieq) measurements. Cells were apically mucus-washed for 30 minutes 24 h prior to treatment with compounds. The basolateral media was removed and replaced with media containing the compound of interest diluted to its final concentration from DMSO stocks. Treated cells were incubated at 37° C. and 5% CO2 for 24 hours. At the end of the treatment period, the media was changed to the Ieq experimental solution for 2 hours before the experiment and plates are maintained in a CO2-free incubator during this period. The plates containing the cells were then placed in pre-warmed heating blocks at 36° C.±0.5 for 15 minutes before measurements are taken. The transepithelial voltage (VT) and conductance (GT) were measured using a custom 24 channel current clamp (TECC-24) with 24 well electrode manifold. The Ieq assay measurements were made following additions with standardized time periods:
1. The baseline VT and GT values were measured for approximately 20 minutes.
2. Benzamil was added to block ENaC for 15 minutes.
3. Forskolin plus VX-770 were added to maximally activate ΔF508-CFTR for 27 minutes.
4. Bumetanide was added to inhibit the NaK2Cl cotransporter and shut-off secretion of chloride.
The activity data captured was the area under the curve (AUC) for the traces of the equivalent chloride current. The AUC was collected from the time of the forskolin/VX-770 addition until the inhibition by bumetanide addition. Correction in response to compound treatment was scored as the increase in the AUC for compound-treated samples over that of vehicle-treated samples.
The results are shown below in Table 1. + indicates activity <150% of a CFTR amplifier with compound at concentration shown and amplifier at 3 μM; ++ indicates activity >150% of a CFTR amplifier with compound at concentration shown and amplifier at 3 μM.

T1 sequence (P13569 with tags, fused parts or gaps DEL508-508): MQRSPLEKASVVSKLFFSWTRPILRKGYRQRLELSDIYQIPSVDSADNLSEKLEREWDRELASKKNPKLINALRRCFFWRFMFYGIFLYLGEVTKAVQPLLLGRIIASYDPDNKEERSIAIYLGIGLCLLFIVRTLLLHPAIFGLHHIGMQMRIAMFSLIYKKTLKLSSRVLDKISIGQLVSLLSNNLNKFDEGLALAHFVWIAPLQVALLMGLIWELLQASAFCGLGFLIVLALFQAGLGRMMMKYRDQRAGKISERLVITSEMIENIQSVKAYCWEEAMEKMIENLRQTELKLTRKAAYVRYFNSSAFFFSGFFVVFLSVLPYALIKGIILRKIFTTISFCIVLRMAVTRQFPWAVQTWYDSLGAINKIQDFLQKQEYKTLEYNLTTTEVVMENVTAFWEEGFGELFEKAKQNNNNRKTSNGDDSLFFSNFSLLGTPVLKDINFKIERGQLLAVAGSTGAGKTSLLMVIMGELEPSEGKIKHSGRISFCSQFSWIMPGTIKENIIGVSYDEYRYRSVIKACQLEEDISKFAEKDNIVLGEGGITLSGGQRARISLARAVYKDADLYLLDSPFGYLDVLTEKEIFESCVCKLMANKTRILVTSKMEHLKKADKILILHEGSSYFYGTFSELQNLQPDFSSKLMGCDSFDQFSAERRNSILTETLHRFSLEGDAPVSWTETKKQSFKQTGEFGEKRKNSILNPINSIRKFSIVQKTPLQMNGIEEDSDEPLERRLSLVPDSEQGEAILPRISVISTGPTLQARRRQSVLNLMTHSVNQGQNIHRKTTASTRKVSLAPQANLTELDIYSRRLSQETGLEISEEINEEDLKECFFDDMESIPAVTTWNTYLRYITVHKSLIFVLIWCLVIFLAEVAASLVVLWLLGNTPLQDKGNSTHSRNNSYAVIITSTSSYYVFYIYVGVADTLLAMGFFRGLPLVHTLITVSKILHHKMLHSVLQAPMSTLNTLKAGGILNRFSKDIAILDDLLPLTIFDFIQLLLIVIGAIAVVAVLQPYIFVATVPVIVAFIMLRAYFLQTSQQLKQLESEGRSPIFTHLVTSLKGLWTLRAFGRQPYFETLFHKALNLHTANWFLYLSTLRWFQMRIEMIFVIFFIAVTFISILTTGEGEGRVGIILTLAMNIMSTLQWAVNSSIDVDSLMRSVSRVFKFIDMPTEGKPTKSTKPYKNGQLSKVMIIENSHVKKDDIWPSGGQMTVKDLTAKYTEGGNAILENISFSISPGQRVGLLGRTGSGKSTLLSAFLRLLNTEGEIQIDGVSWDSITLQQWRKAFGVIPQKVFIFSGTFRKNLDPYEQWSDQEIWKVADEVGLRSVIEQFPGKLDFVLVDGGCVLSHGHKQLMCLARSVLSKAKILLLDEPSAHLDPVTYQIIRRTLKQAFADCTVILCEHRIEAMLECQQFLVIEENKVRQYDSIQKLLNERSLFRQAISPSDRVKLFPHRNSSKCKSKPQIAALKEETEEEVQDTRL

Compound	Activity 3 μM	Activity 10 μM
COc1cccc(-c2ccc(=O)n(C(C)C(=O)Nc3ccccc3C(C)(C)C)n2)c1 (stereo not drawn) [Compound 9, N-(2-tert-Butylphenyl)-2-[3-(3-methoxyphenyl)-6-oxo-1,6-dihydropyridazin-1-yl]propanamide]	+ (activity <150% of a CFTR amplifier with compound at concentration shown and amplifier at 3 μM)	+ (activity <150% of a CFTR amplifier with compound at concentration shown and amplifier at 3 μM)
CC(C(=O)Nc1ccc(C(F)(F)F)cc1)n1nc(-c2cccc(C(F)(F)F)c2)ccc1=O (stereo not drawn) [Compound 33, 2-[6-Oxo-3-[3-(trifluoromethyl)phenyl]-1,6-dihydropyridazin-1-yl]-N-[4-(trifluoromethyl)phenyl]propanamide]	++ (activity >150% of a CFTR amplifier with compound at concentration shown and amplifier at 3 μM)	++ (activity >150% of a CFTR amplifier with compound at concentration shown and amplifier at 3 μM)
CC(C(=O)Nc1ccc(C(F)(F)F)cc1)n1nc(-c2ccccc2Cl)ccc1=O (stereo not drawn) [Compound 29, 2-[3-(2-Chlorophenyl)-6-oxo-1,6-dihydropyridazin-1-yl]-N-[4-(trifluoromethyl)phenyl]propanamide]	+ (activity <150% of a CFTR amplifier with compound at concentration shown and amplifier at 3 μM)	+ (activity <150% of a CFTR amplifier with compound at concentration shown and amplifier at 3 μM)
COc1cccc(-c2ccc(=O)n(C(C)C(=O)Nc3ccccc3Cl)n2)c1 (stereo not drawn) [Compound 12, N-(2-Chlorophenyl)-2-[3-(3-methoxyphenyl)-6-oxo-1,6-dihydropyridazin-1-yl]propanamide]	+ (activity <150% of a CFTR amplifier with compound at concentration shown and amplifier at 3 μM)	+ (activity <150% of a CFTR amplifier with compound at concentration shown and amplifier at 3 μM)
COc1cccc(-c2ccc(=O)n(C(C)C(=O)N(C)c3cc(F)cc(F)c3)n2)c1 (stereo not drawn) [Compound 17, N-(3,5-Difluorophenyl)-2-[3-(3-methoxyphenyl)-6-oxo-1,6-dihydropyridazin-1-yl]-N-methylpropanamide]	+ (activity <150% of a CFTR amplifier with compound at concentration shown and amplifier at 3 μM)	+ (activity <150% of a CFTR amplifier with compound at concentration shown and amplifier at 3 μM)
COc1cccc(-c2ccc(=O)n(C(C)C(=O)Nc3cc(C(F)(F)F)cc(C(F)(F)F)c3)n2)c1 (stereo not drawn) [Compound 41, N-(3,5-Bis(trifluoromethyl)phenyl)-2-(3-(3-methoxyphenyl)-6-oxopyridazin-1(6H)-yl)propanamide]	++ (activity >150% of a CFTR amplifier with compound at concentration shown and amplifier at 3 μM)	++ (activity >150% of a CFTR amplifier with compound at concentration shown and amplifier at 3 μM)
CC(C(=O)Nc1ccc(C(F)(F)F)cc1)n1nc(-c2cccc(Cl)c2)ccc1=O (stereo not drawn) [Compound 30, 2-[3-(3-Chlorophenyl)-6-oxo-1,6-dihydropyridazin-1-yl]-N-[4-(trifluoromethyl)phenyl]propanamide]	++ (activity >150% of a CFTR amplifier with compound at concentration shown and amplifier at 3 μM)	++ (activity >150% of a CFTR amplifier with compound at concentration shown and amplifier at 3 μM)
COc1cccc(-c2ccc(=O)n(C(C(=O)Nc3ccc(C(F)(F)F)cc3)c3ccccc3)n2)c1 (stereo not drawn) [Compound 40, 2-(3-(3-Methoxyphenyl)-6-oxopyridazin-1(6H)-yl)-2-phenyl-N-(4-(trifluoromethyl)phenyl)acetamide]	++ (activity >150% of a CFTR amplifier with compound at concentration shown and amplifier at 3 μM)	+ (activity <150% of a CFTR amplifier with compound at concentration shown and amplifier at 3 μM)
COc1cccc(-c2ccc(=O)n(C(C)C(=O)Nc3cccc(C(C)(C)C)c3)n2)c1 (stereo not drawn) [Compound 10, N-(3-tert-Butylphenyl)-2-[3-(3-methoxyphenyl)-6-oxo-1,6-dihydropyridazin-1-yl]propanamide]	–	++ (activity >150% of a CFTR amplifier with compound at concentration shown and amplifier at 3 μM)
COc1cccc(-c2ccc(=O)n(C(Cc3ccccc3)C(=O)Nc3ccc(C(F)(F)F)cc3)n2)c1 (stereo not drawn) [Compound 53, 2-(3-(3-Methoxyphenyl)-6-oxopyridazin-1(6H)-yl)-3-phenyl-N-(4-(trifluoromethyl)phenyl)propanamide]	–	+ (activity <150% of a CFTR amplifier with compound at concentration shown and amplifier at 3 μM)
CC(C(=O)Nc1ccc(C(F)(F)F)cc1)n1nc(-c2ccc(Cl)cc2)ccc1=O (stereo not drawn) [Compound 31, 2-[3-(4-Chlorophenyl)-6-oxo-1,6-dihydropyridazin-1-yl]-N-[4-(trifluoromethyl)phenyl]propanamide]	+ (activity <150% of a CFTR amplifier with compound at concentration shown and amplifier at 3 μM)	+ (activity <150% of a CFTR amplifier with compound at concentration shown and amplifier at 3 μM)
COc1cccc(-c2ccc(=O)n(C(C)C(=O)Nc3cccc(C#N)c3)n2)c1 (stereo not drawn) [Compound 45, N-(3-Cyanophenyl)-2-(3-(3-methoxyphenyl)-6-oxopyridazin-1(6H)-yl)propanamide]	+ (activity <150% of a CFTR amplifier with compound at concentration shown and amplifier at 3 μM)	+ (activity <150% of a CFTR amplifier with compound at concentration shown and amplifier at 3 μM)
COc1cccc(-c2nn(C(C)C(=O)Nc3cc(F)cc(F)c3)c(=O)cc2C)c1 (stereo not drawn) [Compound 21, N-(3,5-Difluorophenyl)-2-[3-(3-methoxyphenyl)-4-methyl-6-oxo-1,6-dihydropyridazin-1-yl]propanamide]	+ (activity <150% of a CFTR amplifier with compound at concentration shown and amplifier at 3 μM)	+ (activity <150% of a CFTR amplifier with compound at concentration shown and amplifier at 3 μM)
CC(C(=O)Nc1cc(F)cc(F)c1)n1nc(-c2cccc(OC(F)(F)F)c2)ccc1=O (stereo not drawn) [Compound 2, N-(3,5-Ddifluorophenyl)-2-[6-oxo-3-[3-(trifluoromethoxy)phenyl]-1,6-dihydropyridazin-1-yl]propanamide]	+ (activity <150% of a CFTR amplifier with compound at concentration shown and amplifier at 3 μM)	+ (activity <150% of a CFTR amplifier with compound at concentration shown and amplifier at 3 μM)
CC(C(=O)Nc1ccc(C(F)(F)F)cc1)n1nc(-c2ccc(C#N)cc2)ccc1=O (stereo not drawn) [Compound 37, 2-[3-(4-Cyanophenyl)-6-oxo-1,6-dihydropyridazin-1-yl]-N-[4-(trifluoromethyl)phenyl]propanamide]	+ (activity <150% of a CFTR amplifier with compound at concentration shown and amplifier at 3 μM)	+ (activity <150% of a CFTR amplifier with compound at concentration shown and amplifier at 3 μM)
COc1cccc(-c2ccc(=O)n(C(C)C(=O)Nc3cc(Cl)cc(Cl)c3)n2)c1 (stereo not drawn) [Compound 46, N-(3,5-Dichlorophenyl)-2-(3-(3-methoxyphenyl)-6-oxopyridazin-1(6H)-yl)propanamide]	++ (activity >150% of a CFTR amplifier with compound at concentration shown and amplifier at 3 μM)	++ (activity >150% of a CFTR amplifier with compound at concentration shown and amplifier at 3 μM)
